Values after ≈ are worked out from the molar mass of the structure shown. Read-outs that look alike come from different tables or passages of the source.
Columns and labels:
VRE#2 (2010A) = experiment: In vitro susceptibility, broth microdilution (MIC); assay type: cell-based, vancomycin resistant Enterococci; details: VRE#2 (2010A); read-out: Antimicrobial activity (MIC) VRE#2
Outline: (§1)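 MIC determined by CLSI 2-fold broth microdilution in cation-adjusted Mueller–Hinton broth at ~2.5×10^5 CFU/ml, final compound 0.031–64 μg/ml, 18–24 h at 37 °C. MIC is the lowest concentration giving complete growth inhibition by background-corrected OD600 versus compound-free wells; duplicate or triplicate wells, replicated at least twice.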

K. pneumoniae (C238) = experiment: In vitro susceptibility, broth microdilution (MIC); assay type: cell-based; details: Klebsiella pneumoniae, read-out: Antimicrobial activity (MIC) K. pneumoniae
Outline: (§2)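 CLSI 2-fold serial broth microdilution; K. pneumoniae C238 grown in L-broth, S. aureus ATCC 29213 in Mueller Hinton broth, plates incubated 18–24 h at 37 °C. MIC taken as lowest concentration giving complete growth inhibition by OD600 versus compound-free wells, background-subtracted.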

S. aureus (ATCC29213) = experiment: In vitro susceptibility, broth microdilution (MIC); assay type: cell-based; details: Staphylococcus aureus; S. aureus ATCC29213; 18-24 h, 37 C; read-out: Antimicrobial activity (MIC) S. aureus ATCC29213
Outline: as §2

MRSA Pyk = biological target: T1, MRSA Pyk (Staphylococcus aureus, UniProt Q6GG09); experiment: MRSA pyruvate kinase (PK) activity, continuous LDH-coupled assay; assay type: biochemical, methicillin resistant S. aureus (MRSA252)
T1 construct: made in house; host or cells: E. coli BL-21 (DE3)
T1 sequence (Q6GG09 whole entry): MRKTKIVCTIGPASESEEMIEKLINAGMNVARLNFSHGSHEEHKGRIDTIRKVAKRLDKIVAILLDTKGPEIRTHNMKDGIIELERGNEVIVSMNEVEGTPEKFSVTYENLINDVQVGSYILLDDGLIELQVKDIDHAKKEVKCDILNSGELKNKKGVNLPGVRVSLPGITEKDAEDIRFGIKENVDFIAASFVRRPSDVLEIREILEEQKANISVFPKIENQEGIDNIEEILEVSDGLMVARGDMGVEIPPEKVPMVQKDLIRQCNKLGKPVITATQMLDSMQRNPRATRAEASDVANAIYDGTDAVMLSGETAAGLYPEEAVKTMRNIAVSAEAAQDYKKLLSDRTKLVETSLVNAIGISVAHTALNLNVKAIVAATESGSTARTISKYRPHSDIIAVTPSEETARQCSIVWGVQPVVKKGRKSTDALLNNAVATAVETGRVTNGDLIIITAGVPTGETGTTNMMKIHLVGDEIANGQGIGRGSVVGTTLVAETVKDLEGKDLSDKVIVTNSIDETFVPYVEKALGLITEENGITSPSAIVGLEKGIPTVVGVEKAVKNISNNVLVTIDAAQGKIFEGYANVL
Outline: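 His-tagged MRSA PK (strain Sanger 252) and human PK isoforms expressed in E. coli BL-21 (DE3) and Ni-NTA purified, used at 15 nM in an LDH-coupled assay following NADH oxidation at 340 nm, 30° C, up to 5 min, ≤1% DMSO. IC50 from four-parameter variable-slope fit; Ki with PEP 2-20 mM, ADP fixed 2 mM, inhibitor 0-400 nM.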

MRSA MW2 (USA400) = experiment: In vitro susceptibility, broth microdilution (MIC); assay type: cell-based, methicillin resistant S. aureus; details: Staphylococcus aureus; MRSA MW2 (USA400); read-out: Antimicrobial activity (MIC) MSRA USA400
Outline: as §1

[1] = tested on: A. baumannii (ATCC 17978); experiment: In vitro susceptibility, broth microdilution (MIC); assay type: cell-based; details: Acinetobacter baumannii, ATCC17978; A. baumannii ATCC 17978 (values marked *); read-out: Antimicrobial activity (MIC) A. baumannii
Outline: as §1

MRSA (ATCC BAA-1762) = experiment: In vitro susceptibility, broth microdilution (MIC); assay type: cell-based, methicillin resistant S. aureus; details: Staphylococcus aureus; MRSA ATCC BAA-1762; read-out: Antimicrobial activity (MIC) MRSA ATCC BAA1762
Outline: as §1

SMILES | MIC (VRE#2 (2010A)) | MIC (K. pneumoniae (C238); K. pneumoniae (C238)) | MIC (S. aureus (ATCC29213)) | IC50 (MRSA Pyk) | MIC (MRSA MW2 (USA400)) | MIC [1] | MIC (K. pneumoniae (C238)) | MIC (MRSA (ATCC BAA-1762))
O=C(NCCC1CCC(O)CC1)c1c(/C=C/c2ccc(Cl)cc2)[nH]c2cc(Br)ccc12 (centres unmarked) [Compound 41, (E)-6-Bromo-2-(4-chlorostyryl)-N-(2-(4-hydroxycyclohexyl)ethyl)-1H-indole-3-carboxamide] | > 64 µg/mL | > 64 µg/mL | > 64 µg/mL | < 100 nM | > 64 µg/mL |  |  | 
CN1CCN(CCCNC(=O)c2c(/C=C/c3ccc(Cl)cc3)[nH]c3cc(Br)ccc23)CC1 [Compound 43, (E)-6-Bromo-2-(4-chlorostyryl)-N-(3-(4-methylpiperazin-1-yl)propyl)-1 H-indole-3-carboxamide] | 16 µg/mL (≈ 31 µM) | 32 µg/mL (≈ 62 µM) | 32 µg/mL (≈ 62 µM) | < 100 nM | 32 µg/mL (≈ 62 µM) |  |  | 
CN1CCN(CCCCNC(=O)c2c(/C=C/c3ccc(Cl)cc3)[nH]c3cc(Br)ccc23)CC1 [Compound 44, (E)-6-Bromo-2-(4-chlorostyryl)-N-(4-(4-methylpiperazin-1-yl)butyl)-1 H-indole-3-carboxamide] | 16 µg/mL (≈ 30.2 µM) | 32 µg/mL (≈ 60.4 µM) | 32 µg/mL (≈ 60.4 µM) | 100 to 1000 nM | 32 µg/mL (≈ 60.4 µM) |  |  | 
CN1CCN(CCNC(=O)c2c(-c3cc4cc(Cl)ccc4[nH]3)[nH]c3cc(Br)ccc23)CC1 [Compound 72, 6-Bromo-5′-chloro-N-(2-(4-methylpiperazin-1-yl)ethyl)-1H,1′H-[2,2′-biindole]-3-carboxamide] | 8 µg/mL (≈ 15.5 µM) | 8 µg/mL (≈ 15.5 µM) | 8 µg/mL (≈ 15.5 µM) | < 100 nM |  | > 64 µg/mL |  | 
CN(C)CCc1c(-c2cc3cc(Cl)ccc3[nH]2)[nH]c2cc(Br)ccc12 [Compound 77, 2-(6-Bromo-5′-chloro-1H,1′H-[2,2′-biindol]-3-yl)-N,N-dimethylethan-1-amine] |  |  | 4 µg/mL (≈ 9.6 µM) | < 100 nM | 4 µg/mL (≈ 9.6 µM) |  | 4 µg/mL (≈ 9.6 µM) | 
CN(C)CCNC(=O)c1c(NC(=O)c2ccc(Cl)cc2)[nH]c2cc(Br)ccc12 [Compound 84, 6-Bromo-2-(4-chlorobenzamido)-N-(2-(dimethylamino)ethyl)-1H-indole-3-carboxamide] |  | 16 µg/mL (≈ 34.5 µM) | 64 µg/mL (≈ 138 µM) |  | > 64 µg/mL |  |  | 
COC(=O)C(=O)c1c(/C=C/c2ccc(Cl)cc2)[nH]c2cc(Br)ccc12 [Compound 86, (E)-Methyl 2-(6-bromo-2-(4-chlorostyryl)-1H-indol-3-yl)-2-oxoacetate] | 64 µg/mL (≈ 153 µM) | > 64 µg/mL | 64 µg/mL (≈ 153 µM) | < 100 nM | 64 µg/mL (≈ 153 µM) |  |  | 
CNC(=O)C(=O)c1c(/C=C/c2ccc(Cl)cc2)[nH]c2cc(Br)ccc12 [Compound 87, (E)-2-(6-bromo-2-(4-chlorostyryl)-1H-indol-3-yl)-N-methyl-2-oxoacetamide] | > 64 µg/mL | > 64 µg/mL | > 64 µg/mL | < 100 nM | > 64 µg/mL |  |  | 
O=C(Nc1c(/C=C/c2ccc(Cl)cc2)[nH]c2cc(Br)ccc12)C(F)(F)F [Compound 93, (E)-N-(6-bromo-2-(4-chlorostyryl)-1H-indol-3-yl)-2,2,2-trifluoroacetamide] | 64 µg/mL (≈ 144 µM) |  | 32 µg/mL (≈ 72.1 µM) | < 100 nM | > 64 µg/mL |  | > 64 µg/mL | 
CC(=O)Nc1c(/C=C/c2ccc(Cl)cc2)[nH]c2cc(Br)ccc12 [Compound 94, (E)-N-(6-bromo-2-(4-chlorostyryl)-1H-indol-3-yl)acetamide] | > 64 µg/mL | > 64 µg/mL | 32 µg/mL (≈ 82.1 µM) | 100 to 1000 nM | > 64 µg/mL |  |  | 
O=C(CO)Nc1c(/C=C/c2ccc(Cl)cc2)[nH]c2cc(Br)ccc12 [Compound 95, (E)-N-(6-bromo-2-(4-chlorostyryl)-1H-indol-3-yl)-2-hydroxyacetamide] | 64 µg/mL (≈ 158 µM) | 64 µg/mL (≈ 158 µM) | 32 µg/mL (≈ 78.9 µM) | 100 to 1000 nM | 64 µg/mL (≈ 158 µM) |  |  | 
O=S(=O)(Nc1nc2cc(Br)ccc2s1)c1ccc(Cl)cc1 [Compound 101, N-(5-bromobenzo[d]thiazol-2-yl)-4-chlorobenzenesulfonamide] |  | 32 µg/mL (≈ 79.3 µM) | 8 µg/mL (≈ 19.8 µM) |  | > 64 µg/mL |  |  | 
Clc1ccc(-c2cc3[nH]c4cc(Br)ccc4c3nc2-c2ccccc2)cc1 [Compound 112, 7-bromo-3-(4-chlorophenyl)-2-phenyl-5H-pyrido[3,2-b]indole] | > 64 µg/mL | > 64 µg/mL | 32 µg/mL (≈ 73.8 µM) | 100 to 1000 nM |  | > 64 µg/mL |  | 
CN(C)c1cc[n+](CCCNC(=O)c2c(-c3cc4cc(Cl)ccc4[nH]3)[nH]c3cc(Br)ccc23)cc1 [Compound 145, 1-(3-(6-bromo-5′-chloro-1H, 1′H-[2,2′-biindole]-3-carboxamido)propyl)-4-(dimethylamino)pyridin-1-ium] | 16 µg/mL |  | 8 µg/mL | < 100 nM |  | > 64 µg/mL |  | 16 µg/mL
O=C(NCCC[n+]1ccc2ccccc2c1)c1c(-c2cc3cc(Cl)ccc3[nH]2)[nH]c2cc(Br)ccc12 [Compound 146, 2-(3-(6-bromo-5′-chloro-1H,1′H-[2,2′-biindole]-3-carboxamido)propyl)isoquinolin-2-ium] | 64 µg/mL |  | 32 µg/mL | < 100 nM |  | > 64 µg/mL |  | 32 µg/mL
C[N+](C)(C)CCCNC(=O)c1c(-c2cc3cc(Cl)ccc3[nH]2)[nH]c2cc(Br)ccc12 [Compound 147, 3-(6-bromo-5′-chloro-1H,1′H-[2,2′-biindole]-3-carboxamido)-N,N,N-trimethylpropan-1-aminium] | 16 µg/mL |  | 16 µg/mL | < 100 nM |  | > 64 µg/mL |  | 16 µg/mL
O=C(Nc1ccc(Cl)c(C(F)(F)F)c1)Nc1nc2cc(Br)ccc2s1 [Compound 156, 1-(5-bromobenzo[d]thiazol-2-yl)-3-(4-chloro-3-(trifluoromethyl)phenyl)urea] | 1 µg/mL (≈ 2.22 µM) |  | 0.5 µg/mL (≈ 1.11 µM) |  |  | 64 µg/mL (≈ 142 µM) |  | 1 µg/mL (≈ 2.22 µM)
O=C(NCc1ccccc1)Nc1nc2cc(Br)ccc2s1 [Compound 158, 1-benzyl-3-(5-bromobenzo[d]thiazol-2-yl)urea] | 2 µg/mL (≈ 5.52 µM) |  | 2 µg/mL (≈ 5.52 µM) |  |  | > 64 µg/mL |  | 1 µg/mL (≈ 2.76 µM)
O=C(COc1cc2[nH]c(-c3cc4ccc(Br)cc4[nH]3)cc2cc1Cl)NCCC[n+]1ccccc1 [Compound 190, 1-(3-(2-((6′-Bromo-5-chloro-1H,1′H-[2,2′-biindol]-6-yl)oxy)acetamido)propyl)pyridin-1-ium Acetate] | 16 µg/mL |  | 8 µg/mL | < 100 nM |  | > 64 µg/mL |  | 8 µg/mL
CN(C)CCc1c(-c2nc3cc(Cl)c(Cl)cc3[nH]2)[nH]c2cc(Br)ccc12 [Compound 202, 2-(6-Bromo-2-(5,6-dichloro-1H-benzo[d]imidazol-2-yl)-1H-indol-3-yl)-N,N-dimethylethan-1-amine] | 4 µg/mL (≈ 8.85 µM) |  | 4 µg/mL (≈ 8.85 µM) | < 100 nM |  | > 64 µg/mL |  | 4 µg/mL (≈ 8.85 µM)
Clc1ccc2[nH]c(-c3cc4ccc(Br)cc4[nH]3)nc2n1 [Compound 208, 2-(6-Bromo-1H-indol-2-yl)-5-chloro-1H-imidazo[4,5-b]pyridine] | 16 µg/mL (≈ 46 µM) |  | 8 µg/mL (≈ 23 µM) | > 1000 nM |  | > 64 µg/mL |  | 8 µg/mL (≈ 23 µM)
